The results in this text go back to US11434246B2, “EP4 antagonists” (Eisai R&D Management Co., Ltd., priority 2015, dated 2022).

Molecules are shown by their SMILES.

The target of this assay is EP4 (Homo sapiens, UniProt P35408). The assay can be described thus: EP4 Antagonism by CRE-PLAP Reporter Assay (SE302 cells, PGE2-stimulated). As to conditions: SE302 (HEK293) cells, 3 ng/mL PGE2, overnight; single or multiple assay average values. More on the design: HEK293 cells express endogenous EP4; endogenous in cells; host or cells: SE302 (HEK293 clone with CRE-PLAP reporter). The assay is classed as cell-based. An excerpt:
PGE2 and [^3H]-labelled PGE2 were purchased from Cayman Chemical (Ann Arbor, Mich.) and Perkin Elmer (Waltham, Mass.), respectively. Mouse breast 4T1 cells (CRL-2539) were obtained from American Tissue Culture Collection. SE302 cell line is a clone of the HEK293 cells containing cAMP response element (CRE) promoter that when activated drives secretion of placental-like alkaline phosphatase (PLAP). HEK293 cells express endogenous EP4 and show induction of PLAP in response to PGE2 and EP4 agonists, but not EP1, 2 or 3 agonists (Chen Q, Muramoto K, Masaaki N, Ding Y, Yang H, Mackey M, Li W, Inoue Y, Ackermann K, Shrota H, Matsumoto I, Spyvee M, Schiller S, Sumida T, Gusovsky F, and Lamphier M. A novel antagonist of the prostaglandin E2 EP4 receptor inhibits Th1 differentiation and Th17 expansion and is orally active in arthritis models. British J Pharmacol, 2010, 160: 292-310). BalB/C female mice at 7-8 week age were purchased from Jackson Laboratory (Bar Harbor, Me.). Mice were maintained under specific pathogen-free conditions.
EP4 Antagonism by CRE-PLAP Reporter Assay: SE302 cells were maintained in DMEM/F12 (50:50) (MediaTech) supplemented with 10% FBS (Tissue Culture Biologicals) plus penicillin/streptomycin. When used for assays, cells were plated in a 96-well plate at 2×10^4 cells/100 μL/well in serum-free assay medium (DMEM/F12 supplemented with 0.1% BSA plus penicillin/streptomycin) and incubated for 4-6 h. Cells were then stimulated with 3 ng/mL of PGE2 in the presence or absence of various concentrations of test compound overnight, and PLAP activity was measured by mixing 15 μL of culture supernatants with 75 μL of Lumi-phos (Lumigen, Inc.) and 60 μL of assay buffer containing 8 mmol/L MgSO4 in 0.1 mol/L carbonate-bicarbonate buffer pH11 in a new 96-well black plate and incubated for 2 h at room temperature. The intensity of luminescence, which reflected the PLAP activity in the supernatant, was quantified with an Envision 2101 Multilabel Reader. Values obtained from DMSO treated samples in the presence of PGE2 were defined as 100% of control, whereas values obtained from DMSO treated samples in the absence of PGE2 were defined as 0% of control. % of control for compound treated samples was calculated as follows: (actual reading−0% of control)/(100% of control−0% of control)×100. IC50 value for each individual experiment was calculated using GraphPad Prism 6.02 (Lake Forest, Calif.) with % of control values.
Compounds of the present invention were assayed according to the methods as described above, and IC50 values, which may be single assay values or multiple assay average values, are summarized in Table 1. Compounds marked “ABS” show absolute stereochemistry.
Background: In a reporter assay the amount or activity of a reporter protein is the signal.

Sequence of EP4 (P35408 whole entry): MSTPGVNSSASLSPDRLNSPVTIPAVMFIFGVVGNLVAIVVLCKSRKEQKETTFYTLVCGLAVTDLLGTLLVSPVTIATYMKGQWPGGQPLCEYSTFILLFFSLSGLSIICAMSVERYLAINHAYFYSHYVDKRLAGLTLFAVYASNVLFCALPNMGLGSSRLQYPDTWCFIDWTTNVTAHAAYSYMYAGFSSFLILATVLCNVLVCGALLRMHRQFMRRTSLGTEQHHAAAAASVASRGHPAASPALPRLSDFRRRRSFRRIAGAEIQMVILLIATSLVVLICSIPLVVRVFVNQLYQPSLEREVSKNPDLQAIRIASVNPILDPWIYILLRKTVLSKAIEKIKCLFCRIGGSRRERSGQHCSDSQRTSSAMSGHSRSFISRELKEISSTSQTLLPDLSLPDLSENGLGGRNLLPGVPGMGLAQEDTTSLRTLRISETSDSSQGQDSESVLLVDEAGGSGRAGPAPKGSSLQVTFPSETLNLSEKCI

For the molecule `Cc1nn2c(c1C(=O)N[C@@H](C)c1ccc(C(=O)O)cc1)N([C@H](C)c1ccc(C(F)(F)F)cc1)CC2` [Compound 35, 4-((S)-1-(6-methyl-1-((R)-1-(4-(trifluoromethyl)phenyl)ethyl)-2,3-dihydro-1H-imidazo[1,2-b]pyrazole-7-carboxamido)ethyl)benzoic Acid], inhibition was half-maximal at 11.1 nM (IC50). This lies in the double-digit nanomolar range. With `C[C@H](NC(=O)c1c(C(F)(F)F)nn2c1N(Cc1cccc(C(F)(F)F)c1)CC2)c1ccc(-c2nn[nH]n2)cc1` [Compound 36, (S)—N-(1-(4-(2H-tetrazol-5-yl)phenyl)ethyl)-6-(trifluoromethyl)-1-(3-(trifluoromethyl)benzyl)-2,3-dihydro-1H-imidazo[1,2-b]pyrazole-7-carboxamide] the figure was 0.31 nM; with `C[C@H](NC(=O)c1c(C(F)(F)F)nn2c1N(Cc1ccc(C(F)(F)F)cc1)CC2)c1ccc(-c2nn[nH]n2)cc1` [Compound 37, (S)—N-(1-(4-(2H-tetrazol-5-yl)phenyl)ethyl)-6-(trifluoromethyl)-1-(4-(trifluoromethyl)benzyl)-2,3-dihydro-1H-imidazo[1,2-b]pyrazole-7-carboxamide], 0.45 nM. The same measure for `C[C@H](NC(=O)c1c(C(F)(F)F)nn2c1N(Cc1cccc(C(F)(F)F)c1)CC2)c1ccc(C(=O)O)nc1` [Compound 38, (S)-5-(1-(6-(trifluoromethyl)-1-(3-(trifluoromethyl)benzyl)-2,3-dihydro-1H-imidazo[1,2-b]pyrazole-7-carboxamido)ethyl)picolinic Acid]: 17.1 nM; for `C[C@H](NC(=O)c1c(C(F)(F)F)nn2c1N(Cc1cccc(C(F)(F)F)c1)CC2)c1ccc(C(=O)O)cn1` [Compound 39, (S)-6-(1-(6-(trifluoromethyl)-1-(3-(trifluoromethyl)benzyl)-2,3-dihydro-1H-imidazo[1,2-b]pyrazole-7-carboxamido)ethyl)nicotinic Acid]: 4.73 nM. With `C[C@H](NC(=O)c1c(C(F)(F)F)nn2c1N(Cc1ccc(C(F)(F)F)cc1)CC2)c1ccc(-c2ccoc2)cc1` [Compound 40, (S)—N-(1-(4-(furan-3-yl)phenyl)ethyl)-6-(trifluoromethyl)-1-(4-(trifluoromethyl)benzyl)-2,3-dihydro-1H-imidazo[1,2-b]pyrazole-7-carboxamide] the figure was 150 nM; with `C[C@H](NC(=O)c1c(C(F)(F)F)nn2c1N(Cc1ccc(Cl)cc1)CCC2)c1ccc(C(=O)O)cc1` [Compound 41, (S)-4-(1-(4-(4-chlorobenzyl)-2-(trifluoromethyl)-4,5,6,7-tetrahydropyrazolo[1,5-a]pyrimidine-3-carboxamido)ethyl)benzoic Acid], 1.53 nM.

With `C[C@H](NC(=O)c1c(C(F)(F)F)nn2c1N(Cc1cccc(Cl)c1)CCC2)c1ccc(C(=O)O)cc1` [Compound 42, (S)-4-(1-(4-(3-chlorobenzyl)-2-(trifluoromethyl)-4,5,6,7-tetrahydropyrazolo[1,5-a]pyrimidine-3-carboxamido)ethyl)benzoic Acid], the IC50 (commonly the concentration needed to halve the response being measured) is 13.6 nM. Compared with the last molecule, the IC50 is about 8.9-fold higher. `C[C@H](NC(=O)c1c(C(F)(F)F)nn2c1N(Cc1ccccc1Cl)CC2)c1ccc(C(=O)O)cc1` [Compound 43, (S)-4-(1-(1-(2-chlorobenzyl)-6-(trifluoromethyl)-2,3-dihydro-1H-imidazo[1,2-b]pyrazole-7-carboxamido)ethyl)benzoic Acid] yielded a half-maximal inhibitory concentration (IC50) of 4.17 nM. The same measure for `C[C@H](NC(=O)c1c(C(F)(F)F)nn2c1N(Cc1cccc(C(F)(F)F)c1)CCC2)c1ccc(C(=O)O)cc1` [Compound 44, (S)-4-(1-(2-(trifluoromethyl)-4-(3-(trifluoromethyl)benzyl)-4,5,6,7-tetrahydropyrazolo[1,5-a]pyrimidine-3-carboxamido)ethyl)benzoic Acid]: 6.83 nM; for `C[C@H](NC(=O)c1c(C(F)(F)F)nn2c1N(Cc1ccc(C(F)(F)F)cc1)CCC2)c1ccc(C(=O)O)cc1` [Compound 45, (S)-4-(1-(2-(trifluoromethyl)-4-(4-(trifluoromethyl)benzyl)-4,5,6,7-tetrahydropyrazolo[1,5-a]pyrimidine-3-carboxamido)ethyl)benzoic Acid]: 1.15 nM. The same measure for `C[C@H](NC(=O)c1c(C(F)(F)F)nn2c1N(Cc1ccccc1C(F)(F)F)CCC2)c1ccc(C(=O)O)cc1` [Compound 46, (S)-4-(1-(2-(trifluoromethyl)-4-(2-(trifluoromethyl)benzyl)-4,5,6,7-tetrahydropyrazolo[1,5-a]pyrimidine-3-carboxamido)ethyl)benzoic Acid]: 100 nM; for `C[C@H](NC(=O)c1c(C(F)(F)F)nn2c1N(c1ccc(C(F)(F)F)cc1)CC2)c1ccc(C(=O)O)cc1` [Compound 47, (S)-4-(1-(6-(trifluoromethyl)-1-(4-(trifluoromethyl)phenyl)-2,3-dihydro-1H-imidazo[1,2-b]pyrazole-7-carboxamido)ethyl)benzoic Acid]: 48.9 nM. For the molecule `C[C@H](NC(=O)c1c(C(F)(F)F)nn2c1N(c1cccc(Cl)c1)CC2)c1ccc(C(=O)O)cc1` [Compound 49, (S)-4-(1-(1-(3-chlorophenyl)-6-(trifluoromethyl)-2,3-dihydro-1H-imidazo[1,2-b]pyrazole-7-carboxamido)ethyl)benzoic Acid], the IC50 stood at 100 nM. For `C[C@H](NC(=O)c1c(C(F)(F)F)nn2c1N(c1ccc(Cl)cc1)CC2)c1ccc(C(=O)O)cc1` [Compound 50, (S)-4-(1-(1-(4-chlorophenyl)-6-(trifluoromethyl)-2,3-dihydro-1H-imidazo[1,2-b]pyrazole-7-carboxamido)ethyl)benzoic Acid], it took 91.3 nM to reach half-maximal inhibition (IC50). The same measure for `C[C@H](NC(=O)c1c(C(F)(F)F)nn2c1N(c1ccc(C(F)(F)F)cc1)CCC2)c1ccc(C(=O)O)cc1` [Compound 51, (S)-4-(1-(2-(trifluoromethyl)-4-(4-(trifluoromethyl)phenyl)-4,5,6,7-tetrahydropyrazolo[1,5-a]pyrimidine-3-carboxamido)ethyl)benzoic Acid]: 100 nM; for `C[C@H](NC(=O)c1c(C(F)(F)F)nn2c1N(Cc1cccc(C(F)(F)F)c1)CC2)c1ccc(C(=O)NC#N)cc1` [Compound 52, (S)—N-(1-(4-(cyanocarbamoyl)phenyl)ethyl)-6-(trifluoromethyl)-1-(3-(trifluoromethyl)benzyl)-2,3-dihydro-1H-imidazo[1,2-b]pyrazole-7-carboxamide]: 0.07 nM. The same measure for `C[C@H](NC(=O)c1c(C(F)(F)F)nn2c1N(Cc1cccc(C(F)(F)F)c1)CC2)c1ccc(C(=O)NS(=O)(=O)c2ccc(F)c(F)c2)cc1` [Compound 53, (S)—N-(1-(4-(((3,4-difluorophenyl)sulfonyl)carbamoyl)phenyl)ethyl)-6-(trifluoromethyl)-1-(3-(trifluoromethyl)benzyl)-2,3-dihydro-1H-imidazo[1,2-b]pyrazole-7-carboxamide]: 3.91 nM; for `C[C@H](NC(=O)c1c(C(F)(F)F)nn2c1N(Cc1cccc(OC(F)(F)F)c1)CC2)c1ccc(C(=O)NS(=O)(=O)c2ccccc2)cc1` [Compound 54, (S)—N-(1-(4-((phenylsulfonyl)carbamoyl)phenyl)ethyl)-1-(3-(trifluoromethoxy)benzyl)-6-(trifluoromethyl)-2,3-dihydro-1H-imidazo[1,2-b]pyrazole-7-carboxamide]: 21.6 nM. The same measure for `C[C@H](NC(=O)c1c(C(F)(F)F)nn2c1N(Cc1cccc(C(F)(F)F)c1)CC2)c1ccc(C(=O)NS(C)(=O)=O)cc1` [Compound 55, (S)—N-(1-(4-((methylsulfonyl)carbamoyl)phenyl)ethyl)-6-(trifluoromethyl)-1-(3-(trifluoromethyl)benzyl)-2,3-dihydro-1H-imidazo[1,2-b]pyrazole-7-carboxamide]: 39.3 nM; for `C[C@H](NC(=O)c1c(C(F)(F)F)nn2c1N(Cc1cccc(C(F)(F)F)c1)CC2)c1ccc(C(=O)NS(=O)(=O)C2CC2)cc1` [Compound 56, (S)—N-(1-(4-((cyclopropylsulfonyl)carbamoyl)phenyl)ethyl)-6-(trifluoromethyl)-1-(3-(trifluoromethyl)benzyl)-2,3-dihydro-1H-imidazo[1,2-b]pyrazole-7-carboxamide]: 73 nM.
